Results published in US11752120B2, “Use of succinic acid in increasing sensitivity of bacteria to antibiotics” (SUN YAT-SEN UNIVERSITY, priority 2018, dated 2023).

Legend:
E. coli K12 = assay: Minimum inhibitory concentration (MIC), NCCLS method, control strain; format: cell-based, Escherichia coli; conditions: no unit in table, MIC in μg/mL
Excerpt: (§1) Escherichia coli (E. coli) are one of the most common bacteria in the clinic. 30 strains of E. coli obtained from the clinic were named YT1-30. The minimum inhibitory concentrations (MIC) of 8 antibiotics against these 30 clinically obtained E. coli was detected according to the NCCLS method, and E. coli K12 was used as a control.

[1] = tested on: clinical Escherichia coli YT1-30; assay: Minimum inhibitory concentration (MIC), NCCLS method, 30 clinical strains; format: cell-based; set-up: Minimum inhibitory concentration (MIC): unit not given here
Excerpt: as §1

Structure (SMILES) | Minimum inhibitory concentration (MIC) (E. coli K12) | Minimum inhibitory concentration (MIC) ([1]; strain YT1) | Minimum inhibitory concentration (MIC) ([1]; strain YT2) | Minimum inhibitory concentration (MIC) ([1]; strain YT3) | Minimum inhibitory concentration (MIC) ([1]; strain YT4) | Minimum inhibitory concentration (MIC) ([1]; strain YT5) | Minimum inhibitory concentration (MIC) ([1]; strain YT6) | Minimum inhibitory concentration (MIC) ([1]; strain YT7) | Minimum inhibitory concentration (MIC) ([1]; strain YT8) | Minimum inhibitory concentration (MIC) ([1]; strain YT9) | Minimum inhibitory concentration (MIC) ([1]; strain YT10) | Minimum inhibitory concentration (MIC) ([1]; strain YT11) | Minimum inhibitory concentration (MIC) ([1]; strain YT12) | Minimum inhibitory concentration (MIC) ([1]; strain YT13) | Minimum inhibitory concentration (MIC) ([1]; strain YT14) | Minimum inhibitory concentration (MIC) ([1]; strain YT15) | Minimum inhibitory concentration (MIC) ([1]; strain YT16) | Minimum inhibitory concentration (MIC) ([1]; strain YT17) | Minimum inhibitory concentration (MIC) ([1]; strain YT18) | Minimum inhibitory concentration (MIC) ([1]; strain YT19) | other results
NCC[C@H](O)C(=O)N[C@@H]1C[C@H](N)[C@@H](O[C@H]2O[C@H](CN)[C@@H](O)[C@H](O)[C@H]2O)[C@H](O)[C@H]1O[C@H]1O[C@H](CO)[C@@H](O)[C@H](N)[C@H]1O [Amikacin] | 0.61 | 9.765 | 9.765 | 9.765 | 9.765 | 9.765 | 9.765 | 9.765 | 9.765 | 2.441 | 39.0625 | 2500 | 2500 | 2500 | 2500 | 2500 | 2500 | 2500 | 2.441 | 9.76 | Minimum inhibitory concentration (MIC) ([1]; strain YT20): 2.441; Minimum inhibitory concentration (MIC) ([1]; strain YT21): 2500; Minimum inhibitory concentration (MIC) ([1]; strain YT22): 625; Minimum inhibitory concentration (MIC) ([1]; strain YT23): 9.765; Minimum inhibitory concentration (MIC) ([1]; strain YT24): 9.765; Minimum inhibitory concentration (MIC) ([1]; strain YT25): 2500; Minimum inhibitory concentration (MIC) ([1]; strain YT26): 2500; Minimum inhibitory concentration (MIC) ([1]; strain YT27): 9.765; Minimum inhibitory concentration (MIC) ([1]; strain YT28): 2500; Minimum inhibitory concentration (MIC) ([1]; strain YT29): 9.765; Minimum inhibitory concentration (MIC) ([1]; strain YT30): 2.441
CNC1CCCN(c2c(F)cc3c(=O)c(C(=O)O)cn(C4CC4)c3c2OC)C1 (stereo not shown) [Balofloxacin] | 0.015 | 0.244 | 3.906 | 15.625 | 250 | 250 | 62.5 | 15.625 | 250 | 250 | 15.625 | 3.906 | 62.5 | 62.5 | 15.625 | 15.625 | 250 | 250 | 62.5 | 62.5 | Minimum inhibitory concentration (MIC) ([1]; strain YT20): 62.5; Minimum inhibitory concentration (MIC) ([1]; strain YT21): 15.625; Minimum inhibitory concentration (MIC) ([1]; strain YT22): 62.5; Minimum inhibitory concentration (MIC) ([1]; strain YT23): 15.625; Minimum inhibitory concentration (MIC) ([1]; strain YT24): 15.625; Minimum inhibitory concentration (MIC) ([1]; strain YT25): 0.244; Minimum inhibitory concentration (MIC) ([1]; strain YT26): 15.625; Minimum inhibitory concentration (MIC) ([1]; strain YT27): 15.625; Minimum inhibitory concentration (MIC) ([1]; strain YT28): 15.625; Minimum inhibitory concentration (MIC) ([1]; strain YT29): 15.625; Minimum inhibitory concentration (MIC) ([1]; strain YT30): 15.625
CC(C)(O/N=C(\C(=O)N[C@@H]1C(=O)N2C(C(=O)[O-])=C(C[n+]3ccccc3)CS[C@H]12)c1csc(N)n1)C(=O)O [Ceftazidime] | 0.122 | 0.122 | 0.488 | 0.488 | 0.488 | 7.81 | 1.953 | 0.488 | 0.488 | 0.488 | 7.812 | 7.812 | 0.488 | 0.488 | 0.488 | 0.488 | 0.488 | 0.488 | 0.488 | 0.488 | MIC compared with the control E. coli K12 ([1]; strain YT1): the same as the control; Minimum inhibitory concentration (MIC) ([1]; strain YT20): 0.122; Minimum inhibitory concentration (MIC) ([1]; strain YT21): 0.488; Minimum inhibitory concentration (MIC) ([1]; strain YT22): 0.488; Minimum inhibitory concentration (MIC) ([1]; strain YT23): 0.488; Minimum inhibitory concentration (MIC) ([1]; strain YT24): 7.812; Minimum inhibitory concentration (MIC) ([1]; strain YT25): 31.25; Minimum inhibitory concentration (MIC) ([1]; strain YT26): 31.25; Minimum inhibitory concentration (MIC) ([1]; strain YT27): 0.488; Minimum inhibitory concentration (MIC) ([1]; strain YT28): 31.25; Minimum inhibitory concentration (MIC) ([1]; strain YT29): 7.812; Minimum inhibitory concentration (MIC) ([1]; strain YT30): 7.812
